The record followed here is patent publication US20060135785A1, “Alpha-phenyl acetanilide derivatives having an acat inhibiting activity and the therapeutic application thereof” (Pierre Fabre Medicament, priority 2002, published 2006).

Usually melting point stands for the temperature, or range, at which the solid turns liquid.

Molecules are shown by their SMILES. Like-named read-outs stand apart in the source and are kept apart here.

One series concerns plasma cholesterol. Description: Blood cholesterol-lowering activity in rats on hypercholesterolemic diet. The format is in vivo, rat. The note with it: male rats, Altromin C 1061 hypercholesterolemic diet 4 days, dose that reduces the plasma cholesterol concentration by half compared with control animals. The protocol: Male rats (160-180 g) were subjected, for 4 days, to an Altromin C 1061 hypercholesterolemic diet and treated in parallel orally with the compounds in suspension in a solution of 2% Tween 80 in distilled water.
On the 5th day, the animals not fasting are anaesthetized with ethyl ether, and bled out on EDTA via the abdominal aorta. The blood is immediately centrifuged and the plasma is stored at 4° C.
The plasma cholesterol is then assayed by the CHOD-PAP method (Boehringer Mannheim Ref. 237574). The 50% effective dose (ED50) corresponds to the dose that reduces the plasma cholesterol concentration by half compared with control animals.

The mark [1] stands for this setting: Rattus norvegicus, po, 96 h, read-out: ED50.

With `CCCCCCCCCCCCn1nnc(C(F)(C(=O)Nc2c(C)c(C)c(N)c(C)c2C)c2ccccc2)n1.Cl` (stereo not shown), the melting point stood at 168 °C.
Regarding `CCCCCCCCCCCCn1nnc(C(C(=O)Nc2cc(C)c(O)c(C)c2C)c2ccccc2)n1` (single isomer, unassigned; (+)) [Compound 5, (+)-2′,3′,5′-Trimethyl-4′-hydroxy-α-(2-dodecyl-2H-5-tetrazolyl)-α-phenylacetanilide], the ED50 in the series on plasma cholesterol (oral) is given as 0.025 mg/kg.
`CCCCCCCCCCCCn1nnc(C(F)(C(=O)Nc2cc(C)c(O)c(C)c2C)c2ccccc2)n1` (single isomer, unassigned; (+)) [Compound 9, (+)-21,3′,5′-Trimethyl-4′-hydroxy-α-(2-dodecyl-2H-5-tetrazolyl)-α-fluoro-α-phenylacetanilide]: in the series on plasma cholesterol (setting [1]), the ED50 turned out to be 0.012 mg/kg.
Still for that read-out and setting: for `CCCCCCCCCCCCS(=O)(=O)[C@H](C(=O)Nc1cc(C)c(O)c(C)c1C)c1ccccc1` [Compound 1, (S)-2′,3′,5′-Trimethyl-4′-hydroxy-α-dodecylsulfonyl-α-phenylacetanilide] the value was 0.25 mg/kg; for `CCCCCCCCCCCCS(=O)(=O)C(F)(C(=O)Nc1cc(C)c(O)c(C)c1C)c1ccccc1` (stereo not drawn) [Compound 3, 2′,3′,5′-Trimethyl-4′-hydroxy-α-dodecylsulfonyl-α-fluoro-α-phenylacetanilide], 0.022 mg/kg.
In turn, `CCCCCCCCCCCCn1nnc(C(C(=O)Nc2cc(C)c(O)c(C)c2C)c2ccccc2)n1` (stereo not drawn) [Compound 4, 2′,3′,5′-Trimethyl-4′-hydroxy-α-(2-dodecyl-2H-5-tetrazolyl)-α-phenylacetanilide] registered a melting point of 105 °C. Besides, the ED50 in the series on plasma cholesterol (setting [1]) stood at 0.029 mg/kg.
For the compound `Cc1cc(NC(=O)C(F)(c2ccccc2)c2nnn(CCCCCCCCCCCC(F)F)n2)c(C)c(C)c1O` (stereo not drawn) [Compound 10, 2′,3′,5′-Trimethyl-4′-hydroxy-α-[2-(12,12-difluoro-dodecyl)-2H-5-tetrazolyl]-α-fluoro-α-phenylacetanilide], the melting point was 96 °C. For the same compound, the ED50 with plasma cholesterol (setting [1]) was 0.029 mg/kg.
Take `CCCCCCCCCCCCS[C@H](C(=O)Nc1cc(C)c(O)c(C)c1C)c1ccccc1` [Eflucimibe, reference compound]: the ED50 in the series on plasma cholesterol (setting [1]) came out at 0.12 mg/kg.
